From patent US20240350659A1, “COMPOSITIONS AND METHODS FOR BIMODAL ANTI-VIRAL COMBINATION THERAPY” (priority 2021, published 2024)

Columns and labels:
SARS-COV-2 [1] = test: Human ACE2 transgenic COVID-19 mouse model (intranasal SARS-COV-2 infection); type: in vivo, mice; conditions: for Survival (%): Daily
SARS-COV-2 [2] = test: In vitro inhibition of SARS-COV-2 replication in Vero E6 cells (viral load by quantitative real-time RT-PCR); type: cell-based; conditions: for effect of removal of the single agent from the formulation on overall activity (FIG. 18): APHR Combination 1 minus one agent
SARS-COV-2 [3] = conditions: WHO Solidarity Trial; cited from earlier work
SARS-COV-2 [4] = conditions: 5-day course, 476 patients, mild COVID-19; cited from earlier work
SARS-COV-2 [5] = type: in vivo; conditions: intention-to-treat population; 10 subjects per arm
[6] = 200 mg/kg, Pretreatment to Day 7

O=c1c(O)c(-c2ccc(O)c(O)c2)oc2cc(O)cc(O)c12 [Quercitin]
Survival (%) (SARS-COV-2 [1]; 66 mg/kg, Pretreatment to Day 7): 80% | Survival (%) (SARS-COV-2 [1]; [6]): 100%

CCC(CC)COC(=O)[C@H](C)N[P@](=O)(OC[C@H]1O[C@@](C#N)(c2ccc3c(N)ncnn23)[C@H](O)[C@@H]1O)Oc1ccccc1 [Remdesivir]
Survival (%) (SARS-COV-2 [1]; 50 mg/kg, Day 1 post-treatment to 7): 100% | Survival (%) (SARS-COV-2 [1]; [6]): 100%

CC(C)=CCC[C@](C)(O)C1CC=C(C)CC1 (stereo partly shown) [bisabolol]
effect of removal of the single agent from the formulation on overall activity (FIG. 18) (SARS-COV-2 [2]): reduced overall activity

CCN(CCO)CCCC(C)Nc1ccnc2cc(Cl)ccc12 (stereo not shown) [hydroxychloroquine]
effect on hospitalized patients with Covid-19 (SARS-COV-2 [3]): little or no effect

Cc1cccc(C)c1OCC(=O)N[C@@H](Cc1ccccc1)[C@@H](O)C[C@H](Cc1ccccc1)NC(=O)[C@H](C(C)C)N1CCCNC1=O [lopinavir]
effect on hospitalized patients with Covid-19 (SARS-COV-2 [3]): little or no effect

C[C@@H]1O[C@@H](OC[C@H]2O[C@@H](Oc3c(-c4ccc(O)c(O)c4)oc4cc(O)cc(O)c4c3=O)[C@H](O)[C@@H](O)[C@@H]2O)[C@H](O)[C@H](O)[C@H]1O [rutin]
inhibition at 1 µM (SARS-COV-2 [2]; Severe acute respiratory syndrome coronavirus 2, Vero C1008, 1 μM final concentration, 1:1 molar ratio of cyclodextrin to rutin, read-out: inhibition of SARS-COV-2 replication over untreated (FIG. 16)): ~25%

O=C(OC[C@H]1O[C@@H](OC(=O)c2cc(O)c(O)c(OC(=O)c3cc(O)c(O)c(O)c3)c2)[C@H](OC(=O)c2cc(O)c(O)c(OC(=O)c3cc(O)c(O)c(O)c3)c2)[C@@H](OC(=O)c2cc(O)c(O)c(OC(=O)c3cc(O)c(O)c(O)c3)c2)[C@@H]1OC(=O)c1cc(O)c(O)c(OC(=O)c2cc(O)c(O)c(O)c2)c1)c1cc(O)c(O)c(OC(=O)c2cc(O)c(O)c(O)c2)c1 [tannic acid]
effect of removal of the single agent from the formulation on overall activity (FIG. 18) (SARS-COV-2 [2]): reduced overall activity

ivermectin
duration of symptoms compared with placebo (SARS-COV-2 [4]): not significantly different | Time to defervescence (days) (SARS-COV-2 [5]): 4 (3 to 6) days | Time to resolution of COVID symptoms (days) (SARS-COV-2 [5]): 4 (3 to 6) days | morbidity, body weight (FIG. 8) (SARS-COV-2 [1]; β-cyclodextrin Rutin daily from Day 2 post infection, Ivermectin once on Day 2 post infection): decreased morbidity
